{"source": "patent US20170367390A1", "about": "“USE OF ELLAGIC ACID DIHYDRATE IN FOOD PRODUCTS AND NUTRACEUTICALS” (HALO LIFE SCIENCE, LLC, priority 2014, published 2017)", "key": {"[1]": {"experiment": "Weight loss and blood glucose in female SWV mice with STZ induced diabetes, 30 days gavage", "assay_type": "in vivo, mouse", "conditions": "STZ diabetic mice; predicted from in vitro data of Example 5", "protocol": "Weight loss and blood glucose in diabetes induced mice treated with ellagic acid was determined and weight loss and blood glucose in mice treated with ellagic acid dihydrate may be determined by the following procedures. Induction of Diabetes: Diabetes is induced in mice by intraperitoneal injection with Streptozotocin (STZ 40 mg/kg) daily for five days. The mice are considered hyperglycemic when the glucose level of each dam is above 200 mg/dL. The mice are fasted for 4 hours before STZ injection and glucose measurement. Treatment: The mice are treated daily for thirty days with ellagic acid or control in the form of a supplemental pill homogenized and suspended in 25% water solution of Cremophor EL. The mice are treated for one month via gavage using the human equivalent dose of 122.4 mg pill/kg of subject (40.6 mg ellagic acid/kg of the subject), the human equivalent does of 40.6 mg ellagic acid/kg of the subject using 98% pure ellagic acid, or control vehicle (25% water solution of Cremophor EL). The human equivalent dose is calculated as described in Example 8. Treatments would start two weeks after the last STZ injection in which hyperglycemia is confirmed in the diabetic mice. The mice would be weighed daily and glucose levels would be measured in fasted animals every five days."}, "glucose oxidase": {"biological_target": "glucose oxidase (Aspergillus niger, UniProt P13006)", "sequence (P13006 17-605, species assumed)": "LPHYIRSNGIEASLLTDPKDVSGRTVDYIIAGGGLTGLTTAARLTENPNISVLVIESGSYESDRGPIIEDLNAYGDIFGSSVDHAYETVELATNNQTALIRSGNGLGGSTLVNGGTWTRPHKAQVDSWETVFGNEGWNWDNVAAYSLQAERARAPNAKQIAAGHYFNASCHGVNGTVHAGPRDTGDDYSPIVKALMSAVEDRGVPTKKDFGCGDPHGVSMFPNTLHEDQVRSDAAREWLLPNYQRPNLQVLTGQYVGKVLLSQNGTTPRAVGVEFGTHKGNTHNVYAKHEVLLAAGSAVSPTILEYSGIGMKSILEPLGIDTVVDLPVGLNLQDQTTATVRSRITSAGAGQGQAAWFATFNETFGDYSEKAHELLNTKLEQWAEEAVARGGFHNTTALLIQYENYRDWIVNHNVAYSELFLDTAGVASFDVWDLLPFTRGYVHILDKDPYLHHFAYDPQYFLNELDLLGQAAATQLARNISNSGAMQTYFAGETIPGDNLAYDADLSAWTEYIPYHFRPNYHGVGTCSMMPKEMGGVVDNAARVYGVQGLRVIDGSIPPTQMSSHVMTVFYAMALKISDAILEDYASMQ", "experiment": "Direct interaction with glucose, glucose oxidase based glucometer on serum", "assay_type": "biochemical", "conditions": "incubated with serum at room temperature five minutes or overnight at 37° C.", "protocol": "Ellagic acid dihydrate was analyzed for direct interaction with glucose. A glucose oxidase based glucometer was used to measure serum glucose. Ellagic acid dihydrate was incubated with serum at room temperature for five minutes or overnight at 37° C. […] Ellagic acid dihydrate is not believed to directly interact with glucose."}, "GLUT4-GFP": {"test_system": "GLUT4-GFP", "experiment": "Localization of glucose transporter GLUT4-GFP, time-lapse confocal microscopy in C2C12", "assay_type": "cell-based, mouse", "protocol": "Induction of glucose transporter, GLUT-4, in ellagic acid dihydrate treated cell cultures was studied. Cellular assays were performed using mouse myoblast C2C12 cells. The cells were infected with a fusion glucose transporter 4 green fluorescent protein (GLUT4-GFP). This protein allows the visualization of GLUT4 by imaging the GFP under fluorescent time-lapse microscopy. Frames were compiled to produce time-lapse images of cellular changes with no treatment or treatment with insulin. The localization of glucose transporter (GLUT4-GFP) was performed in final incubation volume of 505 μL, consisting of 500 μl of Hank's Buffer (Invitrogen) and 5 μl of tested compounds. Insulin was used as positive controls and vehicle (0.1% DMSO) as the negative control. All test compounds were prepared in 10% DMSO and diluted 1:100 for a final concentration of 0.1% DMSO (vehicle). The cells were rinsed in Hank's Buffer thrice and then incubated in Hank's Buffer at 37° C. for one hour. The test compounds were added (ellagic acid dihydrate, insulin, or vehicle) and the cells were imaged using laser-confocal microscopy (Leica TCS SP5 X) with FITC fluorescent filters to determine changes in GLUT4-GFP localization. Time-lapse images (TIF) were collected and post-processed using Image-J (NIH) for video construction."}, "MEF cells": {"test_system": "MEF cells", "experiment": "Glucose uptake, 2-NBDG labeling, flow cytometry, MEFs", "assay_type": "cell-based, mouse", "protocol": "Cellular assays were performed using mouse myoblast C2C12 cells and MEF cells. […] Increased glucose uptake was indicated as increasing signal of 2-NBDG ([…]) in cells. Glucose uptake assays were carried out in a final incubation volume of 50 μl consisting of, 2-NBDG), (100 μM) in 1× Phosphate Buffered Saline w/Ca+, Mg+ (PBS++). The same buffer was used for washing cells. Insulin was used as a positive control. All testing compounds were prepared in 10% DMSO and diluted 1:100 for a final concentration of 0.1% DMSO (vehicle). Cells were culture to 70-90% confluence and then washed twice with PBS++. Cells were incubated for 30 minutes at 37° C. in PBS++. Nuclear stain, HCS CellMask stain (blue, Invitrogen), and/or testing compounds (ellagic acid dihydrate, insulin, or vehicle) were added. Cells were incubated for 30 min at 37° C. Cells were washed twice with PBS++ and incubated with 2-NBDG for 10 minutes. Cells were washed thrice with PBS++ and then imaged in PBS++. Alternatively, the final PBS wash was removed and cells were incubated with Accutase (Invitrogen) for 10 min at 37° C., neutralized with 10% FBS in 1×PBS, and analyzed by flow cytometry. An additional experiment was performed to measure glucose uptake in C2Cl2 cells exposed to metformin, insulin and ellagic acid dihydrate 2 (batch 2). FIG. 5C. Glucose uptake in ellagic acid dihydrate treated cell culture was measured and compared to glucose uptake under insulin or ellagic acid treatment. […] Flow cytometry results were run in triplicate with 1000 cells per batch."}}, "note": "Entries after “also recorded” stand apart in the source; their conditions may differ.", "data": [{"smiles": "O.O.O=c1oc2c(O)c(O)cc3c(=O)oc4c(O)c(O)cc1c4c23", "note": "[ellagic acid dihydrate]", "values": [{"measurement": "mean glucose level values compared to mice treated with ellagic acid", "setting": "[1]", "value": "lower mean glucose level values"}, {"measurement": "weight loss compared to mice treated with ellagic acid", "setting": "[1]", "value": "greater decrease in weight loss"}, {"measurement": "inhibition of the glucose oxidase reaction", "setting": "glucose oxidase", "value": "no inhibition of the glucose oxidase reaction was observed"}, {"measurement": "timing of GLUT4-GFP/membrane process compared with insulin", "setting": "GLUT4-GFP; C2C12, 4000 nM", "value": "slightly delayed"}, {"measurement": "GLUT4-GFP localization", "setting": "GLUT4-GFP; C2C12, 4000 nM exposure", "value": "decrease in nuclear GLUT4-GFP"}, {"measurement": "ruffling of filopodia at the surface of the cell", "setting": "GLUT4-GFP; C2C12, 4000 nM exposure", "value": "rapid ruffling of filopodia at the surface of the cell"}, {"measurement": "increased glucose uptake (percent change relative to vehicle)", "setting": "MEF cells; 400 nM exposure, fibroblasts (MEFs), flow cytometry", "value": 47, "unit": "%"}, {"measurement": "dose effect for increasing glucose uptake", "setting": "MEF cells; MEFs, flow cytometry, 2-NBDG", "value": "dose effect for increasing glucose uptake"}, {"measurement": "increase in glucose uptake compared with ellagic acid or insulin", "setting": "MEF cells; MEFs, flow cytometry, Example 5", "value": "significantly greater increase in glucose uptake than that seen in ellagic acid (EA) or insulin treatment"}, {"measurement": "glucose uptake (2-NBDG signal) relative to vehicle", "setting": "MEF cells; MEFs, flow cytometry, vehicle 0.1% DMSO", "value": "significantly greater than vehicle treated"}, {"measurement": "glucose uptake relative to insulin", "setting": "MEF cells; fibroblasts (MEFs), at most concentrations tested / equal concentrations, dihydrate", "value": "significantly more glucose uptake relative to insulin; also recorded: exceeded the uptake induced by insulin"}]}]}
